# Counter-ions that a name gives are not always drawn. Like-named read-outs stand apart in the source and are kept apart here.
# Molecular target: T1, PRMT5/MEP50 complex (Homo sapiens, UniProt O14744)
# T1 construct: purchased Reaction Biology Corporation
# Assay: PRMT5:MEP50 FlashPlate Assay (histone H4 peptide methylation)
# Format: biochemical
# Conditions: 40 nM H4 (1-15) peptide, 1 μM SAM
# Procedure: The PRMT5 inhibitory activity of compounds of the present invention was determined using a PRMT5: MEP50 FlashPlate Assay and a PRMT5: MEP50 HotSpot Assay (Reaction Biology Corporation).
# The assay uses purified human, PRMT5 enzyme to convert S-adenosyl-L-[methyl-3H]methionine plus histone H4 L-arginine to S-adenosyl-L-homocysteine plus histone H4 [methyl-3H]-L-arginine. The assay was carried out using Streptavidin-coated FlashPlates (Perkin Elmer), which contained a scintillant embedded in the plastic of the plate. The histone H4 peptide substrate was conjugated with biotin, which binds to the streptavidin-coated well of the plate, placing the H4 peptide in close proximity to the side well and the scintillant. The transfer of the tritiated methyl group from S-adenosyl-L-[methyl-3H]methionine to the bound histone H4 peptide generated a radiolabeled histone H4, which was quantitated by measuring in a scintillation counter to determine the activity of PRMT5 enzyme in the presence and absence of compound. […] Briefly, compounds of the present invention were solubilized in 100% DMSO at a highest concentration of 10 mM. […] Control samples lacking compound, PRMT5/MEP50 complex or various reaction components also were prepared and processed in parallel with compound test samples. SAH was used as a positive control for assay validation. To measure PRMT5 inhibitory activity, 3 nM PRMT5/MEP50 complex (Reaction Biology Corporation) was preincubated with test compound in assay buffer containing 40 nM histone H4 peptide (amino acids 1-15)-Biotin conjugate for 20 min at room temperature. The enzymatic reaction was initiated by adding 1 μM tritiated S-adenosyl methionine (final concentration) and the reaction is allowed to proceed for 20 min. The reaction was stopped and the amount of bound, tritiated H4 peptide in each sample was determined using a scintillation counter.
# T1 sequence (O14744 2-637 limits assumed): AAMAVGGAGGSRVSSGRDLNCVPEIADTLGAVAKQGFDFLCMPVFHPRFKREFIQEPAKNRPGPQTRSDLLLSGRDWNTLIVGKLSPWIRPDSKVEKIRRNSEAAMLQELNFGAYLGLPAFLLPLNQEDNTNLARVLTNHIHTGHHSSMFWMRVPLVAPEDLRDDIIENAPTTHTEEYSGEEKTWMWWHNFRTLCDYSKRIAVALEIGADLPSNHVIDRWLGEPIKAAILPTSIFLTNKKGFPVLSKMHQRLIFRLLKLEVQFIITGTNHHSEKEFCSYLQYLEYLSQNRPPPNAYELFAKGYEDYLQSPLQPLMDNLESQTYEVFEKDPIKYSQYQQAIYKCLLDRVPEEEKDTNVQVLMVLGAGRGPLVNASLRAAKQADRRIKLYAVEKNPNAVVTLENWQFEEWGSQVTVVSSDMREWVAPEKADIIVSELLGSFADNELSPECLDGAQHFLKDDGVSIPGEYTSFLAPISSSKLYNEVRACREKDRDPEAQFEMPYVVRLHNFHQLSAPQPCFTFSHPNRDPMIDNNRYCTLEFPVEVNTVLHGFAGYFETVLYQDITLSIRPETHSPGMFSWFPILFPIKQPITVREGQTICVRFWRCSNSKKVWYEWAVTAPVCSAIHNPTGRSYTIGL
# T1 sequence (Q9BQA1 2-342 partner limits assumed): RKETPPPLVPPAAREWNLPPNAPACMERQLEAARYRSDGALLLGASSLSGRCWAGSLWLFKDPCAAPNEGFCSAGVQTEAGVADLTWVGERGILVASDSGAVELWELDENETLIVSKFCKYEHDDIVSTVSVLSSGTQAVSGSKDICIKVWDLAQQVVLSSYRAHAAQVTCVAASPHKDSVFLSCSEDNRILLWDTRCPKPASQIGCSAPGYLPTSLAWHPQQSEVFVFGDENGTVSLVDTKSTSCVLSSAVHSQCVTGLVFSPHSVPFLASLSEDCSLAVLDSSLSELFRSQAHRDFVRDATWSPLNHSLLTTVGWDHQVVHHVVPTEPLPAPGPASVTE
Compound,"IC50 (IC50 + 2 μM MTA, plus 2 μM MTA) [µM]","IC50 (absence of MTA, read-out: IC50) [µM]"
"CCO[C@@H]1COC[C@H]1Nc1cccc2c1nc(N)n2C (racemic) [Example 1-7, rac-N4-((3R,4S)-4-ethoxytetrahydrofuran-3-yl)-1-methyl-1H-benzo[d]imidazole-2,4-diamine]",> 300,–
"Cn1c(N)nc2c(NCCN3CC4CC4C3)cccc21 (stereo not shown) [Example 1-8, N4-(2-(3-azabicyclo[3.1.0]hexan-3-yl)ethyl)-1-methyl-1H-benzo[d]imidazole-2,4-diamine]",> 300,–
"Cn1c(N)nc2c(Nc3cnn(CCN4CCCC4=O)c3)cccc21 [Example 1-13, 1-(2-(4-((2-amino-1-methyl-1H-benzo[d]imidazol-4-yl)amino)-1H-pyrazol-1-yl)ethyl)pyrrolidin-2-one]",> 300,–
"Cn1c(N)nc2c(Nc3ccncc3)cccc21 [Example 1-31, 1-methyl-N4-(pyridin-4-yl)-1H-benzo[d]imidazole-2,4-diamine]",> 300,–
"Cn1c(N)nc2c(Nc3ccncn3)cccc21 [Example 1-32, 1-methyl-N4-(pyrimidin-4-yl)-1H-benzo[d]imidazole-2,4-diamine]",> 300,–
"Cc1nnc(CN(C)c2cccc3c2nc(N)n3C)n1C [Example 1-50, N4-((4,5-dimethyl-4H-1,2,4-triazol-3-yl)methyl)-N4,1-dimethyl-1H-benzo[d]imidazole-2,4-diamine]",> 300,–
"CN(Cc1nnc2n1CCOC2)c1cccc2c1nc(N)n2C [Example 1-51, N4-((5,6-dihydro-8H-[1,2,4]triazolo[3,4-c][1,4]oxazin-3-yl)methyl)-N4,1-dimethyl-1H-benzo[d]imidazole-2,4-diamine]",> 300,–
"Cn1c(N)nc2cc(-c3cncnc3)ccc21 [Example 1-52, 1-methyl-5-(pyrimidin-5-yl)-1H-benzo[d]imidazol-2-amine]",> 300,–
"Cn1c(N)nc2cc(-c3cccnc3)ccc21 [Example 1-54, 1-methyl-5-(pyridin-3-yl)-1H-benzo[d]imidazol-2-amine]",> 300,–
"Cc1ncccc1-c1ccc2c(c1)nc(N)n2C [Example 1-58, 1-methyl-5-(2-methylpyridin-3-yl)-1H-benzo[d]imidazol-2-amine]",> 300,–
"Cn1c(N)nc2cc(-c3cn[nH]c3)ccc21 [Example 1-60, 1-methyl-5-(1H-pyrazol-4-yl)-1H-benzo[d]imidazol-2-amine]",> 300,–
"Cn1c(N)nc2cc(-c3occc3C#N)ccc21 [Example 1-61, 2-(2-amino-1-methyl-1H-benzo[d]imidazol-5-yl)furan-3-carbonitrile]",34.5,–
"Cn1c(N)nc2c(-c3cncnc3)cccc21 [Example 1-62, 1-methyl-4-(pyrimidin-5-yl)-1H-benzo[d]imidazol-2-amine]",> 300,–
"Cn1c(N)nc2c(-c3cccnc3)cccc21 [Example 1-64, 1-methyl-4-(pyridin-3-yl)-1H-benzo[d]imidazol-2-amine]",> 300,–
"Cn1c(N)nc2c(-c3ccccc3)cccc21 [Example 1-65, 1-methyl-4-phenyl-1H-benzo[d]imidazol-2-amine]",> 300,–
"Cn1c(N)nc2c(-c3ccncc3)cccc21 [Example 1-66, 1-methyl-4-(pyridin-4-yl)-1H-benzo[d]imidazol-2-amine]",> 300,–
"Cn1nccc1-c1cccc2c1nc(N)n2C [Example 1-67, 1-methyl-4-(1-methyl-1H-pyrazol-5-yl)-1H-benzo[d]imidazol-2-amine]",> 300,–
"Cn1ccc(-c2cccc3c2nc(N)n3C)n1 [Example 1-68, 1-methyl-4-(1-methyl-1H-pyrazol-3-yl)-1H-benzo[d]imidazol-2-amine]",> 300,–

Compound,"IC50 (IC50 + 2 μM MTA, plus 2 μM MTA) [µM]","IC50 (absence of MTA, read-out: IC50) [µM]"
"Cc1cc(-c2cccc3c2nc(N)n3C)cnc1O [Example 1-70, 5-(2-amino-1-methyl-1H-benzo[d]imidazol-4-yl)-3-methylpyridin-2-ol]",> 300,–
"Cn1cc(-c2cccc3c2nc(N)n3C)ccc1=O [Example 1-71, 5-(2-amino-1-methyl-1H-benzo[d]imidazol-4-yl)-1-methylpyridin-2(1H)-one]",> 300,–
Cn1c(N)nc2c(-c3ccnnc3)cccc21 [Example 1-72],> 300,–
"Cn1c(N)nc2cc(-c3ccnnc3)ccc21 [Example 1-73, 1-methyl-5-(pyridazin-4-yl)-1H-benzo[d]imidazol-2-amine]",> 300,–
"Cc1nn(C(C)C)cc1Nc1cccc2c1nc(N)n2C [Example 1-74, N4-(1-isopropyl-3-methyl-1H-pyrazol-4-yl)-1-methyl-1H-benzo[d]imidazole-2,4-diamine]",> 300,–
"Cn1c(N)nc2c(NCc3cn4cccc(F)c4n3)cccc21 [Example 1-75, N4-((8-fluoroimidazo[1,2-a]pyridin-2-yl)methyl)-1-methyl-1H-benzo[d]imidazole-2,4-diamine]",180,–
"Cn1c(N)nc2c(Nc3cnccn3)cccc21 [Example 1-76, 1-methyl-N4-(pyrazin-2-yl)-1H-benzo[d]imidazole-2,4-diamine]",> 300,–
"Cn1c(N)nc2c(Nc3ncccn3)cccc21 [Example 1-78, 1-methyl-N4-(pyrimidin-2-yl)-1H-benzo[d]imidazole-2,4-diamine]",> 300,–
"Cn1c(N)nc2cc(Nc3cnccn3)ccc21 [Example 1-82, 1-methyl-N5-(pyrazin-2-yl)-1H-benzo[d]imidazole-2,5-diamine]",50.7,–
"Cn1cc(-c2ccc(Cl)c3c2nc(N)n3C)cn1 [Example 2-1, 7-chloro-1-methyl-4-(1-methylpyrazol-4-yl)benzimidazol-2-amine hydrochloride]",> 300,> 300
"CN1C(=O)CCC1c1ccc(Cl)c2c1nc(N)n2C (stereo not shown) [Example 2-5, 5-(2-amino-7-chloro-1-methyl-benzimidazol-4-yl)-1-methyl-pyrrolidin-2-one hydrochloride]",> 300,> 300
"CN1CCOC(Cc2ccc(Cl)c3c2nc(N)n3C)C1 (stereo not shown) [Example 2-6, 7-chloro-1-methyl-4-[(4-methylmorpholin-2-yl)methyl]benzimidazol-2-amine]",> 300,> 300
"Cn1c(N)nc2c(-c3cnoc3)ccc(Cl)c21 [Example 2-7, 7-chloro-4-isoxazol-4-yl-1-methyl-benzimidazol-2-amine]",> 300,> 300
"Cn1c(N)nc2cc(Cc3ccncc3)cc(C#N)c21 [Example 3-4, 2-amino-3-methyl-6-(4-pyridylmethyl)benzimidazole-4-carbonitrile]",> 300,> 300
"Cn1c(N)nc2cc(C(F)(F)c3cccnc3)cc(C#N)c21 [Example 3-17, 2-amino-6-[difluoro (3-pyridyl)methyl]-3-methyl-benzimidazole-4-carbonitrile]",> 300,> 300
"Cn1nnc(CNc2cc(C#N)c3c(c2)nc(N)n3C)c1C(F)F [Example 3-23, 2-amino-5-(((5-(difluoromethyl)-1-methyl-1H-1,2,3-triazol-4-yl)methyl)amino)-1-methyl-1H-benzo[d]imidazole-7-carbonitrile]",0.43,155
"CCn1cnnc1CNc1cc(C#N)c2c(c1)nc(N)n2C [Example 3-24, 2-amino-5-(((4-ethyl-4H-1,2,4-triazol-3-yl)methyl)amino)-1-methyl-1H-benzo[d]imidazole-7-carbonitrile]",0.73,280
